For 2 compounds, ED50 results are on record in patent publication US4879278A, “Isolation and structural elucidation of the cytostatic linear depsipeptide dolastatin 15” (priority 1989, dated 1989).

Each structure is given as a SMILES string. In brackets after ≈: the same amount, converted by molar mass. Read-outs that look alike come from different tables or passages of the source. Non-standard residues stand in square brackets, D forms with d. Residues, ends and D or L forms follow the SMILES beside them. *: point of attachment. X3 = COC1=CC(=O)N(C(=O)[C@@H](O*)C(C)C)[C@H]1Cc1ccccc1; NMe2Val = CC(C)[C@@H](C(=O)*)N(C)C; NMeV = CN[C@H](C(=O)O)C(C)C

Assay [1] relates to P388 lymphocytic leukemia cell line. Put plainly: P388 in vitro cell line growth inhibition. The assay is classed as cell-based, murine. The protocol:
Because of the dolastatin's potency, the sea hare seems to require only vanishingly small quantities (about 1 mg each from 100 kg), making isolation and structural elucidation of these peptides exceptionally challenging. Later another substance was isolated and determined to be a unique linear pentapeptide and was denominated "dolastatin 10". […] The PS System is an excellent predictor of activity against various types of human neoplasms (See: Vendetti et al, Lloydia, 30, 332 et seq (1967) and references cited therein.)

Assay [2] has the same test system. As to conditions: PS leukemia; cited from earlier work.

`COC1=CC(=O)N(C(=O)[C@@H](OC(=O)[C@@H]2CCCN2C(=O)[C@@H]2CCCN2C(=O)[C@H](C(C)C)N(C)C(=O)[C@@H](NC(=O)[C@H](C(C)C)N(C)C)C(C)C)C(C)C)[C@H]1Cc1ccccc1` [Dolastatin 15] (NMe2Val-V[NMeV]PP-X3): the ED50 in assay [1] was 0.0024 µg/mL (≈ 0.00287 µM).
For the compound `CC[C@H](C)[C@@H]([C@@H](CC(=O)N1CCC[C@H]1[C@H](OC)[C@@H](C)C(=O)N[C@@H](Cc1ccccc1)c1nccs1)OC)N(C)C(=O)[C@@H](NC(=O)[C@H](C(C)C)N(C)C)C(C)C` [dolastatin 10], the ED50 in assay [2] is 46 µg/mL (≈ 58.6 µM).
